Test results taken from patent US10064865B2, “Composition comprising phosphodiesterase type 5 inhibitor for inhibiting apoptosis of nerve cells” (ARIBIO INC., priority 2012, dated 2018).
Marks after values point to notes of the source that are not given here.

Assays:
Assay type in all cases: in vivo, Sprague-Dawley (SD) rats
[1] = system: neuron apoptosis-operated rats; assay: Example 1 forelimb placing test
Protocol: (§1) Sensorimotor function was evaluated by use of limb placing de Ryck M et al., Stroke. 20:1383-90(1989)) and body swing (Borlongan and Sanberg, J Neurosci. 15:5372-8(1995)) tests. These tests were performed one day before neuron apoptosis to obtain a baseline and then at 1, 3, 7, 14, 21 and 28 days after neuron apoptosis. Behavioral tests were done before drug administration on days when both were scheduled. The investigator performing the surgery and behavioral assessments was blinded to treatment assignment.
(§2) Limb placing test: Forelimb and hindlimb placement were assessed independently. For the forelimb placing test, the rats were held by their torso with their forepaws hanging free and moved slowly toward the edge of a tabletop, stopping short of touching the vibrissae (for vision-induced placing), touching the vibrissae (for vibrissae-induced placing), making light contact with the front of the forepaw to the edge of the tabletop (for tactile-induced placing), and pressing the forepaws to the edge of the table with increased pressure (for proprioceptive-induced placing). Hindlimb placing was conducted in the same manner as above but with tactile and proprioceptive stimulation applied to the front/top of each hindlimb. Each limb for placing in response to visual, vibrissae, tactile, and proprioceptive stimulation are scored in the following manner (A total of 12 points in forelimb placing test and 6 points in hindlimb placing test means maximal neurological deficit, and 0 points means normal performance):
(§3) Normal performance=0 points;
(§4) Performance with unilateral limb=1 point;
(§5) Performance with a delay (2 seconds) and/or incomplete=2 point;
(§6) All data were expressed as mean±standard deviation (S.D.) of ten rats. Multiple comparison tests for different dose groups were conducted. Variance homogeneity was examined using the Levene test (Levene A, Clin Otalary, 1981; 6:145-51). […] Statistical analyses were conducted using SPSS (Release 14K, SPSS Inc., USA; Ludbrook, Clin Exp Pharmacol Physiol, 1997; 24:294-6). In addition, the percent changes between neuron apoptosis control and mirodenafil treated rats were calculated to help the understanding of the efficacy of test material as follow equation 3. Percentage changes as compared with neuron apoptosis control (%)=[((Data of mirodenafil treated groups−Data of neuron apoptosis control)/Data of neuron apoptosis control)×100] [EQUATION 3]

[2] = system: neuron apoptosis-operated rats; assay: Example 1 hindlimb placing test
Protocol: as §1, §2, §3, §4, §5, §6

[3] = Example 2 body weight measurements; conditions: for Body weights at 29 days after surgery [B] / Weight gains [B − A]: 1 mg/kg s.c. once a day for 14 days; for Body weights at Before surgery / Body weights at surgery [A]: before treatment
Protocol: Changes of body weight were measured at 1 day before neuron apoptosis, the day of neuron apoptosis, 1, 3, 7, 14, 21, 28 and 29 days after neuron apoptosis. […] Body weight gains (g) during 29 days after neuron apoptosis=(Body weight at the 29 days after neuron apoptosis−body weight at the day of neuron apoptosis) [EQUATION 5]
All data were expressed as mean±standard deviation (S.D.) of ten rats. Multiple comparison tests for different dose groups were conducted. Variance homogeneity was examined using the Levene test (Levene A, Clin Otalary, 1981; 6:145-51). […] Statistical analyses were conducted using SPSS for Windows (Release 14K, SPSS Inc., USA; Ludbrook, Clin Exp Pharmacol Physiol, 1997; 24:294-6). In addition, the percent changes as compared with neuron apoptosis control and mirodenafil treated rats were calculated to help the understanding of the efficacy of test substances as follow Equation 6 and 7. Percentage Changes as Compared with Sham Control (%)=[((Data of neuron apoptosis control−Data of sham control rat)/Data of sham control rats)×100] [EQUATION 6] Percentage Changes as Compared with neuron apoptosis Control (%)=[((Data of test material treated rats−Data of neuron apoptosis control rats)/Data of neuron apoptosis control rats)×100] [EQUATION 7]

[4] = 0.5 mg/kg group, day 1 after operation (before drug administration)
[5] = 0.5 mg/kg group, day −1 (baseline)
[6] = 0.5 mg/kg s.c. once a day, day 3 after operation
[7] = 0.5 mg/kg s.c. once a day, day 7 after operation
[8] = 0.5 mg/kg s.c. once a day, day 14 after operation
[9] = 0.5 mg/kg s.c. once a day, day 21 after operation
[10] = 0.5 mg/kg s.c. once a day, day 28 after operation
[11] = 0.5 mg/kg, 3 days after surgery
[12] = 0.5 mg/kg, 7 days after surgery
[13] = 0.5 mg/kg, 14 days after surgery
[14] = 0.5 mg/kg, 21 days after surgery
[15] = 0.5 mg/kg, 28 days after surgery
[16] = 1 mg/kg group, day 1 after operation (before drug administration)
[17] = 1 mg/kg group, day −1 (baseline)
[18] = 1 mg/kg s.c. once a day, day 3 after operation
[19] = 1 mg/kg s.c. once a day, day 7 after operation
[20] = 1 mg/kg s.c. once a day, day 14 after operation
[21] = 1 mg/kg s.c. once a day, day 21 after operation
[22] = 1 mg/kg s.c. once a day, day 28 after operation
[23] = 2 mg/kg group, day 1 after operation (before drug administration)
[24] = 2 mg/kg group, day −1 (baseline)
[25] = 2 mg/kg s.c. once a day, day 3 after operation
[26] = 2 mg/kg s.c. once a day, day 7 after operation
[27] = 2 mg/kg s.c. once a day, day 14 after operation
[28] = 2 mg/kg s.c. once a day, day 21 after operation
[29] = 2 mg/kg s.c. once a day, day 28 after operation

SMILES: CCCOc1ccc(S(=O)(=O)N2CCN(CCO)CC2)cc1-c1nc2c(CCC)cn(CC)c2c(=O)[nH]1 [Mirodenafil, mirodenafil]
- Forelimb placing test score [1, 4]: 12.00 ± 0.00^d
- Forelimb placing test score [1, 5]: 0.70 ± 0.67
- Forelimb placing test score [1, 6]: 8.00 ± 1.15^a
- Forelimb placing test score [1, 7]: 7.80 ± 1.55^a
- Forelimb placing test score [1, 8]: 6.80 ± 1.14^ac
- Forelimb placing test score [1, 9]: 6.40 ± 1.17^a
- Forelimb placing test score [1, 10]: 5.40 ± 1.07^a
- forelimb placing test scores, change as compared with neuron apoptosis control [1, 11]: −3.61%
- forelimb placing test scores, change as compared with neuron apoptosis control [1, 12]: −10.34%
- forelimb placing test scores, change as compared with neuron apoptosis control [1, 13]: −12.82%
- forelimb placing test scores, change as compared with neuron apoptosis control [1, 14]: −11.11%
- forelimb placing test scores, change as compared with neuron apoptosis control [1, 15]: −12.90%
- Forelimb placing test score [1, 16]: 12.00 ± 0.00^d
- Forelimb placing test score [1, 17]: 0.70 ± 0.48
- Forelimb placing test score [1, 18]: 6.80 ± 1.23^ab
- Forelimb placing test score [1, 19]: 6.10 ± 1.20^ab
- Forelimb placing test score [1, 20]: 5.30 ± 1.06^ab
- Forelimb placing test score [1, 21]: 4.20 ± 1.23^ab
- Forelimb placing test score [1, 22]: 2.70 ± 1.06^ab
- forelimb placing test scores, change as compared with neuron apoptosis control ([1]; 1 mg/kg, 3 days after surgery): −18.07%
- forelimb placing test scores, change as compared with neuron apoptosis control ([1]; 1 mg/kg, 7 days after surgery): −29.89%
- forelimb placing test scores, change as compared with neuron apoptosis control ([1]; 1 mg/kg, 14 days after surgery): −32.05%
- forelimb placing test scores, change as compared with neuron apoptosis control ([1]; 1 mg/kg, 21 days after surgery): −41.67%
- forelimb placing test scores, change as compared with neuron apoptosis control ([1]; 1 mg/kg, 28 days after surgery): −56.45%
- Forelimb placing test score [1, 23]: 12.00 ± 0.00^d
- Forelimb placing test score [1, 24]: 0.60 ± 0.70
- Forelimb placing test score [1, 25]: 6.20 ± 0.92^ab
- Forelimb placing test score [1, 26]: 5.70 ± 0.67^ab
- Forelimb placing test score [1, 27]: 4.70 ± 0.67^ab
- Forelimb placing test score [1, 28]: 4.10 ± 0.88^ab
- Forelimb placing test score [1, 29]: 2.60 ± 0.84^ab
- forelimb placing test scores, change as compared with neuron apoptosis control ([1]; 2 mg/kg, 3 days after surgery): −25.30%
- forelimb placing test scores, change as compared with neuron apoptosis control ([1]; 2 mg/kg, 7 days after surgery): −34.48%
- forelimb placing test scores, change as compared with neuron apoptosis control ([1]; 2 mg/kg, 14 days after surgery): −39.74%
- forelimb placing test scores, change as compared with neuron apoptosis control ([1]; 2 mg/kg, 21 days after surgery): −43.06%
- forelimb placing test scores, change as compared with neuron apoptosis control ([1]; 2 mg/kg, 28 days after surgery): −58.06%
- Hindlimb placing test score [2, 4]: 6.00 ± 0.00^d
- Hindlimb placing test score [2, 5]: 0.50 ± 0.71
- Hindlimb placing test score [2, 6]: 4.00 ± 0.82^a
- Hindlimb placing test score [2, 7]: 3.20 ± 0.79^a
- Hindlimb placing test score [2, 8]: 2.80 ± 0.63^d
- Hindlimb placing test score [2, 9]: 2.60 ± 0.70^a
- Hindlimb placing test score [2, 10]: 2.40 ± 0.97^a
- hindlimb placing test scores, change as compared with neuron apoptosis control [2, 11]: −6.98%
- hindlimb placing test scores, change as compared with neuron apoptosis control [2, 12]: −8.57%
- hindlimb placing test scores, change as compared with neuron apoptosis control [2, 13]: −9.68%
- hindlimb placing test scores, change as compared with neuron apoptosis control [2, 14]: −13.33%
- hindlimb placing test scores, change as compared with neuron apoptosis control [2, 15]: −11.11%
- Hindlimb placing test score [2, 16]: 6.00 ± 0.00^d
- Hindlimb placing test score [2, 17]: 0.30 ± 0.48
- Hindlimb placing test score [2, 18]: 3.50 ± 0.71^ac
- Hindlimb placing test score [2, 19]: 2.50 ± 0.71^ab
- Hindlimb placing test score [2, 20]: 2.10 ± 0.57^df
- Hindlimb placing test score [2, 21]: 1.70 ± 0.48^ab
- Hindlimb placing test score [2, 22]: 1.10 ± 0.74^ab
- hindlimb placing test scores, change as compared with neuron apoptosis control ([2]; 1 mg/kg, 3 days after surgery): −18.80%
- hindlimb placing test scores, change as compared with neuron apoptosis control ([2]; 1 mg/kg, 7 days after surgery): −28.57%
- hindlimb placing test scores, change as compared with neuron apoptosis control ([2]; 1 mg/kg, 14 days after surgery): −32.26%
- hindlimb placing test scores, change as compared with neuron apoptosis control ([2]; 1 mg/kg, 21 days after surgery): −43.33%
- hindlimb placing test scores, change as compared with neuron apoptosis control ([2]; 1 mg/kg, 28 days after surgery): −59.26%
- Hindlimb placing test score [2, 23]: 6.00 ± 0.00^d
- Hindlimb placing test score [2, 24]: 0.40 ± 0.52
- Hindlimb placing test score [2, 25]: 3.30 ± 0.67^ab
- Hindlimb placing test score [2, 26]: 2.30 ± 0.82^ab
- Hindlimb placing test score [2, 27]: 1.80 ± 1.03^de
- Hindlimb placing test score [2, 28]: 1.60 ± 0.84^ab
- Hindlimb placing test score [2, 29]: 1.10 ± 0.57^ab
- hindlimb placing test scores, change as compared with neuron apoptosis control ([2]; 2 mg/kg, 3 days after surgery): −23.26%
- hindlimb placing test scores, change as compared with neuron apoptosis control ([2]; 2 mg/kg, 7 days after surgery): −34.29%
- hindlimb placing test scores, change as compared with neuron apoptosis control ([2]; 2 mg/kg, 14 days after surgery): −41.94%
- hindlimb placing test scores, change as compared with neuron apoptosis control ([2]; 2 mg/kg, 21 days after surgery): −46.67%
- hindlimb placing test scores, change as compared with neuron apoptosis control ([2]; 2 mg/kg, 28 days after surgery): −59.26%
- body weight gains during 29 days, change as compared with neuron apoptosis control ([3]; 1 mg/kg from 24 hrs after surgery): 43.24%
- body weight gains during 29 days, change as compared with neuron apoptosis control ([3]; 1 mg/kg from 72 hrs after surgery): 33.78%
- body weight gains during 29 days, change as compared with neuron apoptosis control ([3]; 1 mg/kg from 168 hrs after surgery): 11.04%
- Body weights at 29 days after surgery [B] ([3]; start 24 hrs after operation): 357.13 ± 15.38^ab g
- Weight gains [B − A] ([3]; start 24 hrs after operation): 79.50 ± 14.09^ab g
- Body weights at 29 days after surgery [B] ([3]; start 72 hrs after operation): 349.38 ± 10.28^ac g
- Weight gains [B − A] ([3]; start 72 hrs after operation): 74.25 ± 14.95^ab g
- Body weights at 29 days after surgery [B] ([3]; start 168 hrs after operation): 338.63 ± 15.26^a g
- Weight gains [B − A] ([3]; start 168 hrs after operation): 61.63 ± 6.78^a g
- Body weights at Before surgery ([3]; 1 mg/kg start 24 hrs group): 307.75 ± 15.84 g
- Body weights at surgery [A] ([3]; 1 mg/kg start 24 hrs group): 277.63 ± 15.07 g
- Body weights at Before surgery ([3]; 1 mg/kg start 72 hrs group): 307.25 ± 11.36 g
- Body weights at surgery [A] ([3]; 1 mg/kg start 72 hrs group): 275.13 ± 12.21 g
- Body weights at Before surgery ([3]; 1 mg/kg start 168 hrs group): 307.88 ± 10.53 g
- Body weights at surgery [A] ([3]; 1 mg/kg start 168 hrs group): 277.00 ± 10.41 g
